Laboratory results: patent publication US11717536B2, “Treatment for periodontitis” (THE UNIVERSITY OF MELBOURNE, priority 2017, dated 2023)
Values joined by “and” are separate entries in the source; they are usually repeats but may differ in a detail not shown here. Equal entries are not always repeated. Marks after values point to notes of the source that are not given here.

Tests used:
[1] = system: enamel substratum of the polymicrobial biofilm caries model; assay: Enamel subsurface demineralization in the polymicrobial biofilm caries model (transverse microradiography); parameters: species or system human; details: for integrated mineral loss ΔZd / lesion depth LD: twice daily 10 min pulses, mean ± SD
Protocol: (§1) To model supragingival plaque six representative oral bacterial species, Streptococcus sanguinis (NCTC 7863), Streptococcus mutans Ingbritt, Actinomyces naeslundii (NCTC 10301), Veillonella parvula (ATCC 17745), Lactobacillus casei (NCDO 161) and Fusobacterium nucleatum (ATCC 10953) (Table 5) were cultured as a polymicrobial biofilm on a human enamel substratum in a constant-depth film fermenter (CDFF; Cardiff University, UK). The CDFF was housed in a 37° C. incubator under anaerobic conditions which were maintained by a constant flow of 5% CO2 in N2 at 1 L/h. The CDFF contained 15 removable polytetrafluoroethylene (PTFE) pans on a circular platform that was rotated at a constant speed of three rpm. The biofilms were grown on three enamel blocks (see below) in each PTFE pan using an artificial saliva medium (ASM, 2.5 g/L mucin type II (porcine, gastric, Sigma), 2.0 g/L bacteriological peptone (Oxoid), 2.0 g/L tryptone (Oxoid), 1.0 g/L yeast extract (Oxoid), 0.35 g/L NaCl, 0.2 g/L KCl, 0.2 mg/L vitamin K, 1 mg/L haemin and 0.1 g/L cysteine hydrochloride) at a constant flow rate of 30 mL/h. Prior to inoculation, the CDFF pan surfaces were conditioned for 24 h with ASM at a flow rate of 10 mL/h (McBain et al (2003) J Appl Microbiol. 94(4):655-66). In order to mimic in vivo bacterial growth conditions in the oral cavity with dietary sugar intake and to provide a high cariogenic challenge, a 1% (w/v) sucrose solution in ASM was pumped into the CDFF four times a day at four hourly intervals with a flow rate of 30 mL/h for 10 min.
Three treatments were applied to the polymicrobial biofilms: 290 ppm fluoride with 220 ppm fluoride as SnF2 and 70 ppm fluoride as NaF (referred to as SnF2), 2% CPP-ACP and 2% CPP-ACP-SnF2. These treatments were compared with the control in which the test solution was replaced with ASM. Each treatment was applied using two 10 min pulses of the test solution in ASM with a flow rate of 30 mL/h. The first pulse started 30 min prior to the first sucrose pulse of the morning and the second started 3 h 30 min after the final sucrose pulse of the day.
On day 6, 12 and 19 after inoculation four pans were removed aseptically from the CDFF and replaced with blank sterile pans. Enamel blocks from the pans were removed for bacterial enumeration and transverse microradiography.
Three hundred and sixty extracted human third molars were obtained under University of Melbourne ethics approval (HREC #1237616) and sterilized by exposure to 4.1 kGy of gamma radiation. Enamel blocks were cut from the teeth with approximately 6×3×3 mm dimensions using a water-cooled diamond blade saw (Minitom, Struers) and polished using a RotoPol/RotoForce lapping instrument with 1200, 2400, 4000 grit lapping papers (Struers) and 3 and 1 μm diamond polishing pastes (Struers). The blocks were positioned in custom made CDFF pans at a depth of 100 μm and sealed in place with yellow sticky wax (Kemdent) and sterilized by exposure to 4.1 kGy of gamma radiation.
Transverse microradiography was carried out essentially as described previously [Shen et al 2011]. […] The lesion depth (μm) was determined as the distance to the point at which the mineral content reaches 95% of the sound enamel value. The integrated mineral loss (IML), represented as ΔZd, was calculated by trapezoidal integration as the area between the sound-enamel densitometric profile and that of the demineralized enamel densitometric profile in vol % min·μm.

[2] = system: Actinomyces naeslundii (NCTC 10301); assay: Six species polymicrobial biofilm in constant-depth film fermenter, species composition: A. naeslundii; type: cell-based; details: 19 days; mean ± standard deviation; n = 5-21
Protocol: as §1
Three treatments were applied to the polymicrobial biofilms: 290 ppm fluoride with 220 ppm fluoride as SnF2 and 70 ppm fluoride as NaF (referred to as SnF2), 2% CPP-ACP and 2% CPP-ACP-SnF2. […]
For each timepoint, DNA was extracted separately from 8-9 enamel blocks using PowerLyzer® PowerSoil® DNA Isolation Kits (MoBio Laboratories) following the manufacturers “Vacuum Protocol” with a Precellys® bead homogeniser (Bertin Technologies). Samples were quantified using a Qubit™ dsDNA HS assay kit (Life Technologies) before being stored at −80° C. […]

## Casein phosphopeptide-amorphous calcium phosphate [CPP-ACP]
[1]; Day 6
  integrated mineral loss ΔZd: 572.9 ± 97.80 vol % min · μm
  lesion depth LD: 15.0 ± 2.1^a μm
[1]; Day 12
  integrated mineral loss ΔZd: 1075.3 ± 148.0^ad vol % min · μm
  lesion depth LD: 26.3 ± 4.4^ade μm
[1]; Day 19
  integrated mineral loss ΔZd: 2105.4 ± 346.2^bd vol % min · μm
  lesion depth LD: 52.3 ± 3.2^ad μm
[1]; between day 6 and day 19
  rate of demineralization: 112.1 vol % min·μm/day
[1]; between day 6 and day 19, twice daily exposure
  reduction in rate of demineralization relative to control: 50.2% and 50%
[2]
  A. naeslundii as a percentage of total bacteria in the biofilm: 11.93 ± 2.34^b %
